Measurements published in DBAASP.
In brackets after ≈: the same amount, converted by molar mass. Several values for one entry are separate records, joined by “and”; a condition that tells them apart may be missing. Identical values can stand only once.

Columns and labels:
Assay in all cases: ≥ marks a high value that may be exact or a test limit, other limits are often not marked, values filed in µg/mL are converted to µM
[1] = system: Escherichia coli ATCC 10536
[2] = system: Escherichia coli DH5alpha
[3] = system: Staphylococcus aureus ATCC 9144
[4] = system: Bacillus subtilis ATCC 6633
Candida albicans = system: Candida albicans
Escherichia coli UB1005 = system: Escherichia coli UB1005
[5] = system: Pseudomonas aeruginosa H103
[6] = system: Salmonella enterica serovar Typhimurium
[7] = system: Staphylococcus aureus ATCC 25923
[8] = system: Staphylococcus epidermidis
[9] = system: Enterococcus faecalis ATCC 29212

SMILES | MIC [1] | MIC [2] [µM] | MIC [3] [µM] | MIC [4] [µM] | MIC (Candida albicans) [µM] | MIC (Escherichia coli UB1005) [µM] | MIC [5] [µM] | MIC [6] [µM] | MIC [7] [µM] | MIC [8] [µM] | MIC [9] [µM]
CC[C@H](C)[C@H](NC(=O)[C@@H]1CCCN1C(=O)[C@@H]1CCCN1C(=O)[C@H](CO)NC(=O)[C@@H](NC(=O)[C@H](CCCCN)NC(=O)[C@H](CCCCN)NC(=O)[C@H](Cc1ccccc1)NC(=O)[C@H](CC(C)C)NC(=O)[C@H](CCCCN)NC(=O)[C@H](CCCCN)NC(=O)CNC(=O)[C@H](CCCCN)NC(=O)[C@H](CCCCN)NC(=O)[C@H](CCCN=C(N)N)NC(=O)[C@H](Cc1ccccc1)NC(=O)[C@H](CCCN=C(N)N)NC(=O)[C@H](CCCCN)NC(=O)[C@H](Cc1ccccc1)NC(=O)[C@H](CCCN=C(N)N)NC(=O)[C@@H](N)Cc1ccccc1)C(C)C)C(=O)N[C@@H](CC(C)C)C(=O)N[C@@H](CC(C)C)C(=O)N[C@@H](CC(C)C)C(=O)N[C@@H](Cc1cnc[nH]1)C(=O)N[C@@H](CC(C)C)C(N)=O [FRFKRFRKKGKKLFKKVSPPILLLHL] | 3.3 µM and 8.1 µM | 3.1 (≈ 10 µg/mL) | 3.2 (≈ 10.3 µg/mL) |  |  |  |  |  |  |  | 
CC[C@H](C)[C@H](NC(=O)[C@H](CCCN=C(N)N)NC(=O)[C@@H](NC(=O)[C@@H](NC(=O)[C@@H]1CCCN1C(=O)[C@@H](NC(=O)[C@@H](NC(=O)[C@@H](NC(=O)[C@@H]1CCCN1C(=O)CNC(=O)[C@H](Cc1ccc(O)cc1)NC(=O)[C@H](CCCCN)NC(=O)[C@H](CCCCN)NC(=O)[C@H](Cc1c[nH]c2ccccc12)NC(=O)[C@H](C)NC(=O)[C@H](CCCN=C(N)N)NC(=O)[C@H](CC(C)C)NC(=O)[C@@H](NC(=O)[C@H](CCCCN)NC(=O)[C@H](CCCN=C(N)N)NC(=O)CNC(=O)[C@H](CC(C)C)NC(=O)[C@H](CO)NC(=O)[C@H](CCCN=C(N)N)NC(=O)[C@H](C)NC(=O)CNC(=O)CN)[C@@H](C)CC)[C@@H](C)CC)[C@@H](C)CC)C(C)C)[C@@H](C)CC)[C@@H](C)CC)C(N)=O [GGARSLGRKILRAWKKYGPIIVPIIRI] | 2.2 µM (≈ 6.67 µg/mL) | 2.5 (≈ 7.58 µg/mL) | 3.1 (≈ 9.4 µg/mL) | 1.2 (≈ 3.64 µg/mL) |  |  |  |  |  |  | 
CC[C@H](C)[C@H](NC(=O)CN)C(=O)NCC(=O)N[C@@H](C)C(=O)N[C@H](C(=O)N[C@@H](CC(C)C)C(=O)N[C@@H](CCCCN)C(=O)N[C@H](C(=O)N[C@@H](C)C(=O)N[C@H](C(=O)N[C@H](C(=O)NCC(=O)N[C@@H](CC(C)C)C(=O)N1CCC[C@H]1C(=O)N[C@@H](C)C(=O)N[C@@H](C)C(=O)N[C@H](C(=O)N[C@@H](CO)C(=O)N[C@@H](Cc1c[nH]c2ccccc12)C(=O)N[C@H](C(=O)N[C@@H](CCCCN)C(=O)N[C@@H](CCCN=C(N)N)C(=O)N[C@@H](CCCCN)C(=O)N[C@@H](CCCN=C(N)N)C(=O)N[C@@H](CCC(N)=O)C(=O)N[C@@H](CCC(N)=O)C(N)=O)[C@@H](C)CC)[C@@H](C)CC)[C@@H](C)O)[C@@H](C)O)C(C)C)C(C)C [GIGAVLKVATTGLPAAISWIKRKRQQ] | 3.3 µM (≈ 9.12 µg/mL) | 4.2 (≈ 11.6 µg/mL) | 4 (≈ 11 µg/mL) | 6 (≈ 16.6 µg/mL) |  |  |  |  |  |  | 
CC[C@H](C)[C@H](NC(=O)[C@H](CCCN=C(N)N)NC(=O)[C@H](Cc1ccccc1)NC(=O)[C@H](CCC(N)=O)NC(=O)[C@@H](N)CCCCN)C(=O)N[C@@H](CCCN=C(N)N)C(=O)N[C@H](C(=O)N[C@@H](CCCN=C(N)N)C(=O)N[C@H](C(=O)N[C@H](C(=O)N[C@@H](CCCN=C(N)N)C(=O)N[C@@H](CCCCN)C(N)=O)[C@@H](C)CC)C(C)C)C(C)C [KQFRIRVRVIRK] |  |  |  |  | 3.75 (≈ 6 µg/mL) | 1.88 (≈ 3 µg/mL) | 3.75 (≈ 6 µg/mL) | 3.75 (≈ 6 µg/mL) | 7.5 (≈ 12 µg/mL) | 1 (≈ 1.6 µg/mL) | 
CC[C@H](C)[C@H](NC(=O)[C@H](CCCN=C(N)N)NC(=O)[C@H](C)NC(=O)[C@H](CC(C)C)NC(=O)[C@@H](N)CCCN=C(N)N)C(=O)N[C@H](C(=O)N1CCC[C@H]1C(=O)N[C@H](C(=O)N[C@@H](CCCN=C(N)N)C(=O)N[C@H](C(=O)N[C@@H](C)C(=O)N[C@@H](CCCN=C(N)N)C(=O)O)C(C)C)[C@@H](C)CC)C(C)C [RLARIVPIRVAR] |  |  |  |  | > 176 | ≥ 176 | ≥ 176 | ≥ 176 | > 176 | ≥ 176 | > 176
